{"source": "patent US20260356849A1", "about": "“COMPOUNDS AND METHODS FOR TREATING CANCERS” (CEDARS-SINAI MEDICAL CENTER, priority 2022, published 2026)", "key": {"GIT1-GFP": {"biological_target": "GIT1-GFP (Homo sapiens, UniProt Q9Y2X7)", "sequence (Q9Y2X7 1-770 isoform Q9Y2X7-3)": "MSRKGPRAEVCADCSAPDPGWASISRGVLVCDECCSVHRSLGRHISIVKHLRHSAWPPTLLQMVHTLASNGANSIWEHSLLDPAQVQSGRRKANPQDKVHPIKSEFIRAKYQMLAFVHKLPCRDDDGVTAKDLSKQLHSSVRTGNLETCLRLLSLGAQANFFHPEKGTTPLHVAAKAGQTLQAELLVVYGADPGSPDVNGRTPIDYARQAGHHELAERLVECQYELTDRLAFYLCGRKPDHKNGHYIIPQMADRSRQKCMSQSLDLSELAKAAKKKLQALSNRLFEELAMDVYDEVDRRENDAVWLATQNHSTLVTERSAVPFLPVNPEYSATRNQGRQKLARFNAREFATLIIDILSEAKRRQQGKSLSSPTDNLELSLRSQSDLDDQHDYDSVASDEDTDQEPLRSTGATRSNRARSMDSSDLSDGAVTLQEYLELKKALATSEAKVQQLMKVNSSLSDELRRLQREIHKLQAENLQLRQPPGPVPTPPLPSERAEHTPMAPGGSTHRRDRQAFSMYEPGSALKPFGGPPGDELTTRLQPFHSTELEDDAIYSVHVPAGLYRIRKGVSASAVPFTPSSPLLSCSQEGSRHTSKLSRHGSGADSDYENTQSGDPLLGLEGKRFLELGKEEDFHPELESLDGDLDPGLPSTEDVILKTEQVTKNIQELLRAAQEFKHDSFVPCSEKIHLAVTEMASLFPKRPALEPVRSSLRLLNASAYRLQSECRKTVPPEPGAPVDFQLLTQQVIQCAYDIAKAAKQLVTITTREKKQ", "test": "MST binding to GIT1-GFP"}, "HepG2 cells [1]": {"tested_on": "HepG2 cells", "test": "MTT assay in HepG2 cells", "type": "cell-based", "conditions": "Homo sapiens", "procedure": "(§1) The inventors identified nine inhibitors and perfomed an EdU assay after treating non-malignant (HEK293, AML12) and malignant (HepG2, MzChA-1, HT-29, RKO) cells with varying concentrations of GIT1 inhibitor for 24 hours (results are mean±SE from 3 independent experiments done in duplicates, *p<0.05 vs. DMSO). An MTT assay was also performed after treating primary human and mouse hepatocytes and liver and colon cancer cells with varying concentrations of GIT1 inhibitor for 24 hours (results are mean±SE from 3 independent experiments done in duplicates, *p<0.05 vs. DMSO). […] Percoll may be used to remove dead human hepatocytes."}, "[2]": {"tested_on": "malignant (HepG2, MzChA-1, HT-29, RKO) cells", "test": "EdU/MTT growth assay in cancer cells", "type": "cell-based", "procedure": "as §1"}, "[3]": {"tested_on": "non-malignant (HEK293, AML12) cells", "test": "EdU/MTT growth assay in non-malignant cells", "type": "cell-based", "conditions": "10 μM, 24 hours", "procedure": "as §1"}, "RKO cells [4]": {"tested_on": "RKO cells", "test": "Cell cycle flow cytometry RKO", "type": "cell-based, human", "conditions": "1-5 μM, 24 hours"}, "mouse hepatocytes": {"tested_on": "mouse hepatocytes", "test": "Annexin V-FITC/propidium iodide assay mouse hepatocytes", "type": "cell-based", "conditions": "5 μM, 24-48 hours", "procedure": "FIG. 8 depicts, in accordance with various embodiments of the invention, results of an annexin V-FITC/propidium iodide binding assay performed in human and mouse hepatocytes, AML12, HEK293, HepG2, and RKO cells after treatment with 5 μM of a GIT1 inhibitor or DMSO for 24-48 hours (results are shown as mean±SE from at least 3 experiments. *p<0.05 vs. DMSO).\nAn annexin V-FITC/propidium iodide (PI) binding assay was performed with flow cytometry. […] Both G2/M arrest and cell death are mechanisms by which compound C3 inhibits cancer cells' growth."}, "HepG2 cells [5]": {"tested_on": "HepG2 cells", "test": "Clonogenic assay HepG2", "type": "cell-based", "conditions": "1 μM, 24 hours then drug free medium 10-20 days; dose dependent", "procedure": "RKO, HepG2, and AML12 cells were treated with 1-10 μM compound C3 for 24 hours and maintained in drug free medium for 10-20 days."}, "RKO cells [6]": {"tested_on": "RKO cells", "test": "Migration assay RKO", "type": "cell-based, human", "conditions": "1 μM, 24 hours"}, "GIT1-MAT2B": {"biological_target": "GIT1-MAT2B (Homo sapiens, UniProt Q9Y2X7)", "sequence (Q9Y2X7 whole entry)": "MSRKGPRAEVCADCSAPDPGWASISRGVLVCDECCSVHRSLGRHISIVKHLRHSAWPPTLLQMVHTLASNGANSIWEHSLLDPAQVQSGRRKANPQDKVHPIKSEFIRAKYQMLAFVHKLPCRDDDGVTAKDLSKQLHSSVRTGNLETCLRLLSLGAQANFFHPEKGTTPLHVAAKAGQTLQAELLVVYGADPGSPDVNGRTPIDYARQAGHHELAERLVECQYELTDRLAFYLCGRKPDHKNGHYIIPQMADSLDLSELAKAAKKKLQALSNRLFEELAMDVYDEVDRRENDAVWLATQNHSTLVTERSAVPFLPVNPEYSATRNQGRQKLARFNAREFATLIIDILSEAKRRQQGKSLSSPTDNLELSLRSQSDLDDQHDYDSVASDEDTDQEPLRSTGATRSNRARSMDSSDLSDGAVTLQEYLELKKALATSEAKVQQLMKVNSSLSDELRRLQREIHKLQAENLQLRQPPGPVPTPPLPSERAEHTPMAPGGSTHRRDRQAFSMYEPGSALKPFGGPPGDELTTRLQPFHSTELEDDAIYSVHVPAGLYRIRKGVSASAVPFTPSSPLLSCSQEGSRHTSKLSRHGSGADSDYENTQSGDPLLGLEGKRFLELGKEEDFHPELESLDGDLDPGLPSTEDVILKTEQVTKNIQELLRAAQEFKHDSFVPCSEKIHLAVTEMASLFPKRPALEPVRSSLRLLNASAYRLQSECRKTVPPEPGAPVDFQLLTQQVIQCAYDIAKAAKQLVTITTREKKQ", "test": "Co-IP MAT2B-GIT1 interaction in HepG2 cells", "type": "cell-based", "conditions": "HepG2, 10 μM, 24 hours", "from_the_text": "(§2) GIT1-MAT2B scaffold complex sequesters and activates RAS/RAF/MEK/ERK signaling."}, "[7]": {"tested_on": "MEK1/2 interaction with GIT1, Raf, and ERK", "test": "Co-IP anti-MEK1/2 in HepG2 and RKO cells", "type": "cell-based", "conditions": "10 μM, 24 hours", "from_the_text": "as §2"}, "MEK and ERK activity [8]": {"tested_on": "MEK and ERK activity", "test": "Western blot ERK and MEK activity in AML12 cells", "type": "cell-based", "conditions": "2-10 μM, 24 hours"}, "MEK and ERK activity [9]": {"tested_on": "MEK and ERK activity", "test": "MEK and ERK activity in human hepatocytes", "type": "cell-based", "conditions": "10 μM", "procedure": "Treatment of human hepatocytes with 10 μM compound C3 had no effect on MEK or ERK activity."}, "Cyclin D1": {"tested_on": "Cyclin D1", "test": "Cyclin D1 protein level in cancer cells", "type": "cell-based", "conditions": "10 μM, 24 hours"}, "cyclin B1/CDK1": {"tested_on": "cyclin B1/CDK1", "test": "Cyclin B1/CDK1 activation", "type": "cell-based", "procedure": "HepG2 and RKO cells were treated with 5 μM of compound C3 for 24 hours, followed by co-IP with anti-CDK1 antibody and western blots. […] The densitometric changes are from at least 3 independent experiments in mean±SE; *p<0.05 vs. DMSO. Binding of cyclin BI to CDK1 initiates conformational changes allowing CDK1 to alter its phosphorylation status and to become an active kinase."}, "[10]": {"biological_target": "GIT1-cyclin B1 interaction (Homo sapiens, UniProt Q9Y2X7)", "sequence (Q9Y2X7 whole entry)": "as above", "test": "Co-IP GIT1-cyclin B1 interaction in HepG2", "type": "cell-based", "conditions": "HepG2, 10 μM, 24 h", "procedure": "HepG2 cells were treated with compound C3 at 10 μM for 24 h and subjected to co-IP with anti-GIT1 or anti-cyclin B1 and blotted for cyclin B1 and GIT1, ratios of cyclin B1 bound to GIT1 vs. DMSO control are shown, *p<0.05 vs. DMSO from n=3 (FIG. 38B).\nIn vitro translated GIT1, recombinant MAT2B, and cyclin B1 (both 0.5 μg) were used to evaluate their direct binding, as shown in the blots of FIG. 18A. Also shown, is the results of (FIG. 18B) treating HepG2 cells with a GIT1 inhibitor at 10 μM for 24 hours and subjected to co-IP with anti-GIT1 or cyclin B1 antibody and immunoblotted for cyclin BI and GIT1. In vitro translated GIT1, recombinant MAT2B, and cyclin B1 (both 0.5 μg) were used to evaluate their direct binding. The ratio of cyclin BI bound to GIT1 was compared to DMSO control."}, "GIT1": {"tested_on": "GIT1", "test": "GIT1 dependence of cyclin B1 and EdU effects", "type": "cell-based"}, "M2 macrophages (CD206+)": {"tested_on": "M2 macrophages (CD206+)", "test": "Flow cytometry of macrophages in CRLM tumors", "type": "in vivo, mice", "from_the_text": "Liver tumors from CRLM model in syngeneic mice were processed for flow cytometry. […] In this subgroup, CD206+ was used to identify M2 macrophages."}, "[11]": {"tested_on": "CRC organoids from AKPS mice", "test": "EdU assay of CRC organoids", "type": "cell-based", "conditions": "\"10M\", 24 hours", "procedure": "An EdU assay of CRC organoids from AKPS mice (APCF/Fp53F/FKRAS+SMAD4KOCDX2ERT+) was treated with […] of compound C3 for 24 hours."}}, "note": "“Also recorded” adds a separate entry of the source."}
{"smiles": "CC1(C)Cc2nc3sc4c(=O)n(CC(=O)NCc5ccco5)cnc4c3cc2CO1", "note": "[Compound C3, 2-(8,8-Dimethyl-4-oxo-7,10-dihydro-8H-pyrano[3″,4″: 5′,6′]pyrido[3′,2′: 4,5]thieno[3,2-d]pyrimidin-3 (4H)-yl)-N-(2-furylmethyl) acetamide]", "values": [{"measurement": "Kd", "setting": "GIT1-GFP", "result": 6.2, "unit": "µM"}, {"measurement": "binding to GIT1-GFP", "setting": "GIT1-GFP", "result": "binds to GIT1-GFP"}, {"measurement": "IC50", "setting": "HepG2 cells [1]", "result": "~20", "unit": "µM"}, {"measurement": "apoptosis in cancer cells (FIG. 33)", "setting": "[2]", "result": "slight increase in apoptosis"}, {"measurement": "cytotoxicity in cancer cells", "setting": "[2]; 10 μM, 24 hours", "result": "cytotoxic in cancer cells at 10 μM"}, {"measurement": "growth inhibitory effect", "setting": "[2]; 24 hours, among nine inhibitors", "result": "most potent growth inhibitory effect"}, {"measurement": "cytotoxicity in non-malignant cells", "setting": "[3]", "result": "not in non-malignant cells"}, {"measurement": "G2/M phase, RKO", "setting": "RKO cells [4]", "result": "G2/M phase was significantly increased"}, {"measurement": "percentage of cells in G1 phase, RKO", "setting": "RKO cells [4]", "result": "lowered the percentage of cells in G1 phase"}, {"measurement": "cell death, mouse hepatocytes", "setting": "mouse hepatocytes", "result": "does not induce cell death"}, {"measurement": "clonogenic potential, HepG2", "setting": "HepG2 cells [5]", "result": "inhibited the clonogenic potential"}, {"measurement": "migration of RKO cells", "setting": "RKO cells [6]", "result": "significant inhibition in migration"}, {"measurement": "GIT1-MAT2B scaffold formation", "setting": "GIT1-MAT2B", "result": "disrupted GIT1-MAT2B scaffold formation"}, {"measurement": "RAF/MEK/ERK recruitment", "setting": "[7]", "result": "reduced RAF/MEK/ERK recruitment"}, {"measurement": "ERK and MEK activities, AML12", "setting": "MEK and ERK activity [8]", "result": "not in AML12 cells"}, {"measurement": "MEK or ERK activity, human hepatocytes", "setting": "MEK and ERK activity [9]", "result": "no effect"}, {"measurement": "Cyclin D1 protein level, cancer cells", "setting": "Cyclin D1", "result": "lower in cancer cells"}, {"measurement": "cyclin B1/CDK1 activation", "setting": "cyclin B1/CDK1", "result": "activated cyclin B1/CDK1"}, {"measurement": "GIT1-cyclin B1 interaction", "setting": "[10]", "result": "promotes their interaction; also recorded: enhances GIT1-cyclin BI interaction"}, {"measurement": "GIT1 dependence of lower EdU (growth)", "setting": "GIT1", "result": "lower EdU requires GIT1"}, {"measurement": "GIT1 dependence of increase in cyclin B1 level / stabilization", "setting": "GIT1; n=3", "result": "GIT1 dependent; also recorded: increase in cyclin BI level requires GIT1"}, {"measurement": "M2 macrophages in the tumors", "setting": "M2 macrophages (CD206+); CD206+, n=6 each group", "result": "dramatically reduced M2 macrophages"}, {"measurement": "M1 and CD8+ T cells in the tumors", "setting": "M2 macrophages (CD206+); strong indication", "result": "raised MI and CD8+ T cells"}, {"measurement": "CRC organoid appearance", "setting": "[11]", "result": "does not affect appearance"}, {"measurement": "CRC organoid growth", "setting": "[11]", "result": "inhibits CRC organoids growth"}]}
